The source of these data is ChEMBL document CHEMBL1137061 (Bioorg Med Chem Lett, 2004).

Common to all, as to type: cell membranes, Membrane
The target in assay [1] is Neuronal acetylcholine receptor subunit alpha-7 (Rattus norvegicus, UniProt Q05941).
In assay [2] the target is Neuronal acetylcholine receptor; alpha4/beta2 (Rattus norvegicus, UniProt P09483+P12390). The assay can be described thus: Inhibition of [3H]epibatidine binding to alpha 4 beta 2 nicotinic acetylcholine receptor of rat cortex membranes.
Neuronal acetylcholine receptor; alpha4/beta2, sequence (P09483 whole entry): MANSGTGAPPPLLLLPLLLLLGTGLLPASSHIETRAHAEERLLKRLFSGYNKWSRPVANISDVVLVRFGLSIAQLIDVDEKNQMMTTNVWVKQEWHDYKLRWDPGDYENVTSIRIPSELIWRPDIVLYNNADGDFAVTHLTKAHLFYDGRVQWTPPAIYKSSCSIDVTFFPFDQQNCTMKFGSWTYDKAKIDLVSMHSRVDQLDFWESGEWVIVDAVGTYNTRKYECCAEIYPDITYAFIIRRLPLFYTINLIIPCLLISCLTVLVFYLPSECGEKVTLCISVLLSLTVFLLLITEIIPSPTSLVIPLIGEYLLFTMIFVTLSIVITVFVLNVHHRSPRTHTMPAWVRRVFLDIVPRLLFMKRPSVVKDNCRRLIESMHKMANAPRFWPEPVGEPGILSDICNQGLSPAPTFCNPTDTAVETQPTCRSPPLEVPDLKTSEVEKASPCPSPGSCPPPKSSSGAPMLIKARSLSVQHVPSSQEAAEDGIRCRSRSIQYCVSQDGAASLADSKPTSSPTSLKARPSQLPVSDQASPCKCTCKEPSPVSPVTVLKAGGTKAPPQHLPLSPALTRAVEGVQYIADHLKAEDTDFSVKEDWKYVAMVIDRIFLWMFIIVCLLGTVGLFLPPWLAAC
Neuronal acetylcholine receptor; alpha4/beta2, sequence (P12390 whole entry): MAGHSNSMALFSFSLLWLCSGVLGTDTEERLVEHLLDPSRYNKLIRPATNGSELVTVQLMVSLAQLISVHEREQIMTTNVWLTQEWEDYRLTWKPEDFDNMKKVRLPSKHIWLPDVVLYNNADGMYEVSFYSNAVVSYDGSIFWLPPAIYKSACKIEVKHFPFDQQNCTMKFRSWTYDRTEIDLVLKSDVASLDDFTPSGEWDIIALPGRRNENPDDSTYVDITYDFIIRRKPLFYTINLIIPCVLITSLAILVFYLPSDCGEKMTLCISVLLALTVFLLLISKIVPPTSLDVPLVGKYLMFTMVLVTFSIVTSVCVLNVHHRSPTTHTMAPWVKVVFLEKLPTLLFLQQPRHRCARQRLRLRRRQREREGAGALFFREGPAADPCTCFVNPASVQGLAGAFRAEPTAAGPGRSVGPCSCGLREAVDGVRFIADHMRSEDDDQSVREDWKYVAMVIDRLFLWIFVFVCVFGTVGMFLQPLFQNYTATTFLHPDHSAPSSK
The target of assay [3] is Muscarinic acetylcholine receptor. The assay can be described thus: Inhibition of [3H]N-methylscopolamine binding to muscarinic receptor of rat cortex membranes.

Neuronal acetylcholine receptor subunit alpha-7, sequence (Q05941 whole entry): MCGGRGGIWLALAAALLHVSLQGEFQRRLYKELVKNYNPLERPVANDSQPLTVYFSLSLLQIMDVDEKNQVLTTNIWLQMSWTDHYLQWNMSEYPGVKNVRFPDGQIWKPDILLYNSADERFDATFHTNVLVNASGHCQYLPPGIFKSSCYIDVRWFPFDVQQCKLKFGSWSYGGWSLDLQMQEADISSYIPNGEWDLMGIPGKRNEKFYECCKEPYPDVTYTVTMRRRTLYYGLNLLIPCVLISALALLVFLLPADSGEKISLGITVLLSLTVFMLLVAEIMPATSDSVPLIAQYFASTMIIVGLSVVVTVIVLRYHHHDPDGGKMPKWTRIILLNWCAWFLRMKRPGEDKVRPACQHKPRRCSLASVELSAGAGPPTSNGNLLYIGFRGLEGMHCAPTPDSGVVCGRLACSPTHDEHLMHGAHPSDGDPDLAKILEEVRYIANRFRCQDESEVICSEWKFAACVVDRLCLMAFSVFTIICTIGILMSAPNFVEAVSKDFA

As usually defined, the Ki is the dissociation constant of the complex between target and ligand, obtained from inhibition or displacement. A high value points to lower affinity. In the case of `CC(C)O/N=C/[C@H]1CCCN1C`, the Ki in assay [1] is 47 µM; in assay [2] it was 5.5 µM.
`CC(C)O/N=C\[C@@H]1CCCN1C` came in with a Ki in assay [2] of 1.9 µM.
The same measure, in the same setting: the figure for `C/C=N\OC[C@H]1CCCN1C` is 5.79 µM.
Turning to `CC(C)O/N=C/[C@@H]1CCCN1C`, the Ki is above 50 µM in assay [1] and 17 µM in assay [3].
For `CC=NOC[C@@H]1CCCN1C`, the results for the Ki in assay [1], in assay [3] and in assay [2] were above 50 µM, above 50 µM and 0.68 µM, respectively.
With `CC(C)O/N=C\[C@H]1CCCN1C`, the affinity in assay [2] corresponds to a Ki of 14.5 µM.
Turning to `C/C=N\OC[C@@H]1CCCN1C`, the Ki in assay [1] and in assay [3] was above 50 µM in each case.
In assay [2], `CC(C)=NO[C@H]1CCCN(C)C1` came in with a Ki above 50 µM.
For `Cc1cc([C@@H]2CCCN2C)on1` [ABT-418], the Ki in assay [1] is 1.2 µM; in assay [2], 0.02 µM.
Turning to `CC(C)=NOC[C@@H]1CCCN1C`, the Ki in assay [1] was 49 µM; in assay [3], above 50 µM; in assay [2] it was 0.52 µM.
Consider `CC(C)=NO[C@@H]1CCCN(C)C1`, for which, in assay [2], the Ki is above 50 µM.
